Experimental data as given in patent publication US20210078983A1, “COMPOSITIONS AND METHODS FOR THE TREATMENT OF CANCER” (Cellix Bio Private Limited, priority 2017, published 2021).
“And” between values parts separate entries of the source, which are not always exact repeats. Identical values can stand only once. “Also recorded” adds a separate entry of the source.

How the values were obtained:
[1] = test system: HCT116 human colon cancer xenograft; test: Anti-tumor activity in HCT116 xenograft in Foxn1 athymic nude mice (study CLBBI1); format: in vivo; settings: for Percent Tumor Growth Inhibition (% TGI): 5 days/week
Excerpt: Evaluation of the Anti-Tumor Activity of CLX-155 [(2R,3R,4R,5R)-2-(5-fluoro-4-octanamido-2-oxopyrimidin-1(2H)-yl)-5-methyltetrahydrofuran-3,4-diyl diacetate] in Relation to Capecitabine in HCT116 Xenograft in Foxn1 Athymic Nude Mice Model Study Code: CLBBI1
The purpose of this study was to evaluate the anti-tumor activity of CLX-155 administered by oral gavage, once daily for 5 days/week (two days off) for three weeks in HCT116 human colon cancer xenograft bearing Foxn1 athymic nude mice. The anti-tumor activity of CLX-155 was compared with capecitabine.
(§1) Foxn1 athymic nude female mice (7-8 weeks) were implanted with human colon cancer cell line, HCT116 (5 million cells/site) subcutaneously in the dorsal right flank. The animals were randomized (N=10) into different treatment groups as vehicle control, CLX-155 (125, 250 and 500 mg/kg/day) or capecitabine (1000 mg/kg/day) based on the tumor volume, when the subcutaneous tumor reached a volume in the range of 70-170 mm3. The doses were selected based on the results of a 7-day repeated dose range finding toxicity study in Foxn1 nude mice.
(§2) The animals in the control group were dosed with the formulation used for CLX-155, which consisted of Capryol 90 (32.5% w/v), Polysorbate 80 (2.5% w/v) in Water (q.$) at the dose volume of 8 mL/kg. The Capecitabine formulation was prepared using 0.5% Hydroxypropyl methylcellulose (HPMC E 15) in 40 mM citrate buffer, pH 6.0. Treatment to animals was performed for three consecutive weeks (5 days/week dosing followed by 2 days off). The dose volume was 8 and 10 ml/kg body weight for CLX-155 and capecitabine, respectively. […] Tumor growth inhibition (TGI) was calculated based on the tumor volume on a given day as compared to that on day 1.

[2] = Mortality, clinical signs and body weight in the HCT116 xenograft study; format: in vivo; settings: for mortality: N=10, deaths on day 14 and 22
Description: as §1, §2

Which results are given for `CCCCCCCC(=O)Nc1nc(=O)n([C@@H]2O[C@H](C)[C@@H](OC(C)=O)[C@H]2OC(C)=O)cc1F` [CLX-155, (2R,3R,4R,5R)-2-(5-fluoro-4-octanamido-2-oxopyrimidin-1(2H)-yl)-5-methyltetrahydrofuran-3,4-diyl diacetate]?
Percent Tumor Growth Inhibition (% TGI) ([1]; 125 mg/kg/day oral gavage, day 3): 49.4%; Percent Tumor Growth Inhibition (% TGI) ([1]; 125 mg/kg/day oral gavage, day 5): 59.5%; Percent Tumor Growth Inhibition (% TGI) ([1]; 125 mg/kg/day oral gavage, day 8): 59.8%; Percent Tumor Growth Inhibition (% TGI) ([1]; 125 mg/kg/day oral gavage, day 10): 56.3%; Percent Tumor Growth Inhibition (% TGI) ([1]; 125 mg/kg/day oral gavage, day 12): 58.5%; Percent Tumor Growth Inhibition (% TGI) ([1]; 125 mg/kg/day oral gavage, day 15): 57.8%; Percent Tumor Growth Inhibition (% TGI) ([1]; 250 mg/kg/day oral gavage, day 3): 83.6%; Percent Tumor Growth Inhibition (% TGI) ([1]; 250 mg/kg/day oral gavage, day 5): 61.4%; Percent Tumor Growth Inhibition (% TGI) ([1]; 250 mg/kg/day oral gavage, day 8): 67.7%; Percent Tumor Growth Inhibition (% TGI) ([1]; 250 mg/kg/day oral gavage, day 10): 66.5%; Percent Tumor Growth Inhibition (% TGI) ([1]; 250 mg/kg/day oral gavage, day 12): 66.7%; Percent Tumor Growth Inhibition (% TGI) ([1]; 250 mg/kg/day oral gavage, day 15): 70.4%; Percent Tumor Growth Inhibition (% TGI) ([1]; 500 mg/kg/day oral gavage, day 3): 51.1%; Percent Tumor Growth Inhibition (% TGI) ([1]; 500 mg/kg/day oral gavage, day 5): 67.1%; Percent Tumor Growth Inhibition (% TGI) ([1]; 500 mg/kg/day oral gavage, day 8): 75.3%; Percent Tumor Growth Inhibition (% TGI) ([1]; 500 mg/kg/day oral gavage, day 10): 75.4%; Percent Tumor Growth Inhibition (% TGI) ([1]; 500 mg/kg/day oral gavage, day 12): 79.5%; Percent Tumor Growth Inhibition (% TGI) ([1]; 500 mg/kg/day oral gavage, day 15): 90.6%; complete tumor regressions / complete responders (CR) ([1]; 500 mg/kg/day, N=10): Two and 2/10; TGI compared with the other drug (in words) ([1]; CLX-155 at 500 mg/kg/day): comparable to capecitabine at 1000 mg/kg/day; tumor growth inhibition as compared to the vehicle control (in words) ([1]; all dose levels tested): statistically significant, dose dependent tumor growth inhibition at all doses; also recorded: statistically significant, dose dependent tumor growth inhibition at all the dose levels tested; also recorded: dose-dependent inhibition of tumor growth

What does the source list for `CCCCCOC(=O)Nc1nc(=O)n([C@@H]2O[C@H](C)[C@@H](O)[C@H]2O)cc1F` [Capecitabine, reference compound]?
Mean % body weight reduction ([2]; 1000 mg/kg/day): −5.9%; clinical signs of toxicity ([2]; 1000 mg/kg/day): hunched back and scaly skin; mortality ([2]; 1000 mg/kg/day): Two; mortality ([2]; 1000 mg/kg/day, listed as capecitabine): 2/10; relative toxicity based on mortality and clinical signs of toxicity ([2]; capecitabine 1000 mg/kg/day vs CLX-155 125-500 mg/kg/day): relatively more toxic than CLX-155; CR or PR observed ([1]; 1000 mg/kg/day): no CR or PR observed; Percent Tumor Growth Inhibition (% TGI) ([1]; 1000 mg/kg/day, day 3): 27.3%; Percent Tumor Growth Inhibition (% TGI) ([1]; 1000 mg/kg/day, day 5): 46.2%; Percent Tumor Growth Inhibition (% TGI) ([1]; 1000 mg/kg/day, day 8): 68.0%; Percent Tumor Growth Inhibition (% TGI) ([1]; 1000 mg/kg/day, day 10): 75.4%; Percent Tumor Growth Inhibition (% TGI) ([1]; 1000 mg/kg/day, day 12): 80.9%; Percent Tumor Growth Inhibition (% TGI) ([1]; 1000 mg/kg/day, day 15): 87.7%; TGI compared with the other drug (in words) ([1]; Capecitabine at 1000 mg/kg/day): comparable to that observed at 500 mg/kg/day of CLX-155
